Measurements published in patent US6355799B1, “Substituted benzene compounds, process for their preparation, and herbicidal and defoliant compositions containing them” (ISK Americas Incorporated, priority 1997, dated 2002).

What was measured:
Format in all cases: in vivo
[1] = system: redroot pigweed (Amaranthus retroflexus, AMARE); experiment: Pre-emerge test, greenhouse herbicide activity screening; conditions: pre-emerge, phytotoxicity rating 0-100 at 14 days after application
Outline: (§1)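 Rating: 0–100 visual injury, 14 DAA. Application: acetone, 187 l/ha, 15–1000 g ai/ha, flat-fan track sprayer with nozzle 40–45 cm above soil or canopy. Post-emerge runs used 0.25% v/v surfactant on 2–3 leaf plants.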

[2] = system: barnyardgrass (Echinochloa crus-galli, ECHCG); experiment: as above; conditions: pre-emerge, phytotoxicity rating 0-100 at 14 days after application
Outline: (§2)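 Plants grown in 10 cm pots of sandy loam mix received acetone-dissolved compounds through a moving flat-fan nozzle. Doses ranged from 15 to 1000 g ai/ha. Pre-emerge pots were seeded one day earlier, post-emerge pots 8–21 days earlier. Fourteen days on, each pot was graded 0–100 for damage.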

[3] = system: green foxtail (Setaria viridis, SETVI); experiment: as above; conditions: pre-emerge, phytotoxicity rating 0-100 at 14 days after application
Outline: as §2

[4] = system: ivyleaf morningglory (Ipomoea hederacea, IPOHE); experiment: as above; conditions: pre-emerge, rate 63 g ai/ha, phytotoxicity rating 0-100 at 14 days after application
Outline: as §2

[5] = system: johnsongrass (Sorghum halepense, SORHA); experiment: as above; conditions: pre-emerge, phytotoxicity rating 0-100 at 14 days after application
Outline: as §2

[6] = system: lambsquarters (Chenopodium album, CHEAL); experiment: as above; conditions: pre-emerge, phytotoxicity rating 0-100 at 14 days after application
Outline: as §2

[7] = system: large crabgrass (Digitaria sanguinalis, DIGSA); experiment: as above; conditions: pre-emerge, phytotoxicity rating 0-100 at 14 days after application
Outline: as §2

[8] = system: sicklepod (Cassia obtusifolia, CASOB); experiment: as above; conditions: pre-emerge, phytotoxicity rating 0-100 at 14 days after application
Outline: as §2

[9] = system: velvetleaf (Abutilon theophrasti, ABUTH); experiment: as above; conditions: pre-emerge, phytotoxicity rating 0-100 at 14 days after application
Outline: as §2

[10] = system: field corn (Zea mays L., var. Dekalb 535, CORN); experiment: Pre-emerge test, crop safety; conditions: crop damage, pre-emerge, phytotoxicity rating 0-100 at 14 days after application
Outline: (§3)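 Fourteen days after spraying, crop and weed injury was graded visually from 0, no effect, to 100, every plant dead. Test substances were dissolved in acetone and applied at 15–1000 g ai/ha with a flat-fan nozzle. Application was either pre-emergence, one day after sowing, or post-emergence at the 2–3 leaf stage.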

[11] = system: upland rice (Oryza sp., var. Tebonnet, RICE); experiment: Pre-emerge test, crop safety; conditions: crop damage, pre-emerge, phytotoxicity rating 0-100 at 14 days after application
Outline: as §3

[12] = system: barnyardgrass (Echinochloa crus-galli, ECHCG); experiment: Post-emerge test, greenhouse herbicide activity screening; conditions: post-emerge, 14 days after application, rating scale 0-100
Outline: as §1

[13] = system: green foxtail (Setaria viridis, SETVI); experiment: as above; conditions: post-emerge, 14 days after application, rating scale 0-100
Outline: as §1

[14] = system: ivyleaf morningglory (Ipomoea hederacea, IPOHE); experiment: as above; conditions: post-emerge, 14 days after application, rating scale 0-100
Outline: as §1

[15] = system: johnsongrass (Sorghum halepense, SORHA); experiment: as above; conditions: post-emerge, 14 days after application, rating scale 0-100
Outline: as §1

[16] = system: lambsquarters (Chenopodium album, CHEAL); experiment: as above; conditions: post-emerge, 14 days after application, rating scale 0-100
Outline: as §1

[17] = system: large crabgrass (Digitaria sanguinalis, DIGSA); experiment: as above; conditions: post-emerge, 14 days after application, rating scale 0-100
Outline: as §1

[18] = system: redroot pigweed (Amaranthus retroflexus, AMARE); experiment: as above; conditions: post-emerge, 14 days after application
Outline: as §1

[19] = system: sicklepod (Cassia obtusifolia, CASOB); experiment: as above; conditions: post-emerge, 14 days after application, rating scale 0-100
Outline: as §1

[20] = system: velvetleaf (Abutilon theophrasti, ABUTH); experiment: as above; conditions: post-emerge, 14 days after application, rating scale 0-100
Outline: as §1

[21] = system: field corn (Zea mays L., var. Dekalb 535, CORN); experiment: Post-emerge test, crop safety; conditions: post-emerge, 14 days after application, rating scale 0-100
Outline: (§4)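 Each test used a mechanized track sprayer delivering 187 l/ha of acetone solution at 15–1000 g ai/ha. Post-emerge foliage at 2–3 leaves was treated with added 0.25% v/v non-ionic surfactant and bottom-watered only. Injury was assessed on day 14, where 100 means total kill.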

[22] = system: upland rice (Oryza sp., var. Tebonnet, RICE); experiment: Post-emerge test, crop safety; conditions: post-emerge, 14 days after application, rating scale 0-100
Outline: as §4

In the case of Cc1c(Cl)cc(F)c(-n2c(=O)cc(C(F)(F)F)n(C)c2=O)c1NC(=O)OCCc1ccccc1 [4-57], the “Pre-emerge Herbicidal Activity AMARE” value ([1]; rate 63 g ai/ha) is reported as 95, the “Pre-emerge Herbicidal Activity AMARE” value ([1]; rate 250 g ai/ha) is reported as 100 and the “Pre-emerge Herbicidal Activity ECHCG” value ([2]; rate 63 g ai/ha) is reported as 20. The “Pre-emerge Herbicidal Activity ECHCG” value ([2]; rate 250 g ai/ha) was 75, the “Pre-emerge Herbicidal Activity SETVI” value ([3]; rate 63 g ai/ha) was 80 and the “Pre-emerge Herbicidal Activity SETVI” value ([3]; rate 250 g ai/ha) was 100. The “Pre-emerge Herbicidal Activity IPOHE” value [4] was 50, the “Pre-emerge Herbicidal Activity SORHA” value ([5]; rate 63 g ai/ha) was 10 and the “Pre-emerge Herbicidal Activity SORHA” value ([5]; rate 250 g ai/ha) was 70. The “Pre-emerge Herbicidal Activity CHEAL” value ([6]; rate 63 g ai/ha) was 100, the “Pre-emerge Herbicidal Activity CHEAL” value ([6]; rate 250 g ai/ha) was 100 and the “Pre-emerge Herbicidal Activity DIGSA” value ([7]; rate 63 g ai/ha) was 60. For the same molecule, the “Pre-emerge Herbicidal Activity DIGSA” value ([7]; rate 250 g ai/ha) was 95, the “Pre-emerge Herbicidal Activity CASOB” value ([8]; rate 63 g ai/ha) was 10 and the “Pre-emerge Herbicidal Activity CASOB” value ([8]; rate 250 g ai/ha) was 100. For the same molecule, the “Pre-emerge Herbicidal Activity ABUTH” value ([9]; rate 63 g ai/ha) was 100, the “Pre-emerge Herbicidal Activity ABUTH” value ([9]; rate 250 g ai/ha) was 100 and the “Pre-emerge Herbicidal Activity CORN” value ([10]; rate 63 g ai/ha) was 0. For the same molecule, the “Pre-emerge Herbicidal Activity CORN” value ([10]; rate 250 g ai/ha) was 45, the “Pre-emerge Herbicidal Activity RICE” value ([11]; rate 63 g ai/ha) was 20 and the “Pre-emerge Herbicidal Activity RICE” value ([11]; rate 250 g ai/ha) was 70. For the same molecule, the “phytotoxicity rating ECHCG” value ([12]; 63 g ai/ha) was 30, the “phytotoxicity rating ECHCG” value ([12]; 250 g ai/ha) was 40 and the “phytotoxicity rating SETVI” value ([13]; 63 g ai/ha) was 50. The “phytotoxicity rating SETVI” value ([13]; 250 g ai/ha) was 90, the “phytotoxicity rating IPOHE” value ([14]; 63 g ai/ha) was 100 and the “phytotoxicity rating IPOHE” value ([14]; 250 g ai/ha) was 100. For the same molecule, the “phytotoxicity rating SORHA” value ([15]; 63 g ai/ha) was 30, the “phytotoxicity rating SORHA” value ([15]; 250 g ai/ha) was 50 and the “phytotoxicity rating CHEAL” value ([16]; 63 g ai/ha) was 95. For the same molecule, the “phytotoxicity rating CHEAL” value ([16]; 250 g ai/ha) was 100, the “phytotoxicity rating DIGSA” value ([17]; 63 g ai/ha) was 10 and the “phytotoxicity rating DIGSA” value ([17]; 250 g ai/ha) was 60. For the same molecule, the “phytotoxicity rating AMARE” value ([18]; 63 g ai/ha, rating scale 0-100 (0 no damage, 100 complete death)) was 100, the “phytotoxicity rating AMARE” value ([18]; 250 g ai/ha, rating scale 0-100) was 100 and the “phytotoxicity rating CASOB” value ([19]; 63 g ai/ha) was 60. For the same molecule, the “phytotoxicity rating CASOB” value ([19]; 250 g ai/ha) was 100, the “phytotoxicity rating ABUTH” value ([20]; 63 g ai/ha) was 100 and the “phytotoxicity rating ABUTH” value ([20]; 250 g ai/ha) was 100. The “phytotoxicity rating CORN (crop damage)” value ([21]; 63 g ai/ha) was 40, the “phytotoxicity rating CORN (crop damage)” value ([21]; 250 g ai/ha) was 90 and the “phytotoxicity rating RICE (crop damage)” value ([22]; 63 g ai/ha) was 50. For the same molecule, the “phytotoxicity rating RICE (crop damage)” value ([22]; 250 g ai/ha) was 80.
